The source of these data is patent US8846570B2, “Herbicidal compositions comprising 4-amino-3-chloro-5-fluoro-6-(4-chloro-2-fluoro-3-methoxyphenyl)pyridine-2-carboxylic acid or a derivative thereof and microtubule inhibiting herbicides” (Dow AgroSciences LLC, priority 2012, dated 2014).

Common to all, as to experiment: Postemergence foliar-applied, direct seeded rice, greenhouse: visual weed control
Holding throughout (assay type): in vivo

Assay [1] relates to Digitaria sanguinalis (L.) Scop. (DIGSA). To be noted: 19 DAA. The source says:
(§1) Seeds or nutlets of the desired test plant species were planted in a soil matrix prepared by mixing a loam or sandy loam soil (e.g., 28.6 percent silt, 18.8 percent clay, and 52.6 percent sand, with a pH of about 5.8 and an organic matter content of about 1.8 percent) and calcareous grit in an 80 to 20 ratio. The soil matrix was contained in plastic pots with a volume of 1 quart and a surface area of 83.6 cm^2. When required to ensure good germination and healthy plants, a fungicide treatment and/or other chemical or physical treatment was applied. The plants were grown for 8-22 days in a greenhouse with an approximate 14 h photoperiod which was maintained at about 29° C. during the day and 26° C. during the night. Nutrients (Peters Excel® 15-5-15 5-Ca 2-Mg and iron chelate) were applied in the irrigation solution as needed and water was added on a regular basis. Supplemental lighting was provided with overhead metal halide 1000-Watt lamps as necessary. The plants were employed for testing when they reached the first through fourth true leaf stage.
(§2) Treatments consisted of the acid or esters of 4-amino-3-chloro-5-fluoro-6-(4-chloro-2-fluoro-3-methoxy-phenyl)pyridine-2-carboxylic acid (Compound A), each formulated as an SC (suspension concentrate), and various herbicidal components alone and in combination. Forms of compound A were applied on an acid equivalent basis.
(§3) Treatment requirements were calculated based upon the rates being tested, the concentration of active ingredient or acid equivalent in the formulation, and a 12 mL application volume at a rate of 187 L/ha.
(§4) For treatments comprised of formulated compounds, measured amounts of compounds were placed individually in 25 mL glass vials and diluted in a volume of 1.25% (v/v) Agri-Dex® crop oil concentrated to obtain 12× stock solutions. […] Application solutions were prepared by adding an appropriate amount of each stock solution (e.g., 1 mL) and diluted to the appropriate final concentrations with the addition of 10 mL of an aqueous mixture of 1.25% (v/v) crop oil concentrate so that the final spray solutions contained 1.25+/−0.05% (v/v) crop oil concentrate.
(§5) As required, additional water and/or 97:3 v/v acetone/DMSO was added to individual application solutions so that the final acetone and DMSO concentrations of the application solutions being compared were 8.1% and 0.25%, respectively.
(§6) All stock solutions and applications solutions were visually inspected for compound compatibility prior to application. Spray solutions were applied to the plant material with an overhead Mandel track sprayer equipped with a 8002E nozzles calibrated to deliver 187 L/ha over an application area of 0.503 m^2 at a spray height of 18 to 20 inches (46 to 50 cm) above average plant canopy height. Control plants were sprayed in the same manner with the solvent blank.
(§7) The treated plants and control plants were placed in a greenhouse as described above and watered by sub-irrigation to prevent wash-off of the test compounds. After approximately 3 weeks, the condition of the test plants as compared with that of the untreated plants was determined visually and scored on a scale of 0 to 100 percent where 0 corresponds to no injury or growth inhibition and 100 corresponds to complete kill.
(§8) Colby's equation was used to determine the herbicidal effects expected from the mixtures (Colby, S. R. 1967. Calculation of the synergistic and antagonistic response of herbicide combinations. Weeds 15:20-22.).
(§9) The following equation was used to calculate the expected activity of mixtures containing two active ingredients, A and B: Expected=A+B−(A×B/100)

For assay [2], the system named is Echinochloa colona (L.) Link (ECHCO).
Excerpt: as §1, §2, §3, §4, §5, §6, §7, §8, §9

In assay [3] the test system is Echinochloa crusgalli (L.) Beauv. (ECHCG). As to the method: as §1, with “When required to ensure good germination and healthy plants, a fungicide treatment and/or other chemical or physical treatment was applied.” left out
(§10) Forms of compound A were applied on an acid equivalent basis.
as §4, §5, §6, §7, §8, §9

Assay [4] has as its system Ipomoea hederacea Jacq. (IPOHE). To be noted: post-emergence, read-out: Visual Weed Control (%) Obs. How it is done: as §1, with “When required to ensure good germination and healthy plants, a fungicide treatment and/or other chemical or physical treatment was applied.” left out
as §10, §4, §5, §6, §7, §8, §9

Assay [5] has as its system Brachiaria platyphylla (Griseb.) Nash (BRAPP). The conditions noted are these: 21 DAA.
Excerpt: as §1, §2, §3, §4, §5, §6, §7, §8, §9

Where two headings read alike, the source gives them in different places.

Turning to `CCC(CC)Nc1c([N+](=O)[O-])cc(C)c(C)c1[N+](=O)[O-]` [Pendimethalin, N-(1-ethylpropyl)-3,4-dimethyl-2,6-dinitrobenzenamine, reference compound], the “Visual Weed Control (%) Obs” value in assay [1] (140 g ai/ha) amounted to 0%; in assay [1] (280 g ai/ha), 0%; in assay [2] (19 DAA, 140 g ai/ha), 0%; in assay [2] (19 DAA, 280 g ai/ha) it was 0%; in assay [2] (19 DAA, 560 g ai/ha), 0%; in assay [3] (19 DAA, 140 g ai/ha) it was 0%. Further, the “Visual Weed Control (%) Obs” value in assay [3] (19 DAA, 280 g ai/ha) is reported as 0%; in assay [3] (19 DAA, 560 g ai/ha), 10%; in assay [3] (21 DAA, 1120 g ai/ha), 18%. In assay [4] (456 h, 19 DAA, 140 g ai/ha), the pest or weed control at 140 g/ha came out at 0%. For the same molecule, the pest or weed control at 280 g/ha in assay [4] (456 h, 19 DAA, 280 g ai/ha) was 0%. Further, in assay [4] (456 h, 19 DAA, 560 g ai/ha), the pest or weed control at 560 g/ha was 0%. The pest or weed control at 1120 g/ha in assay [4] (504 h, 21 DAA, 1120 g ai/ha) was found to be 13%.

With `COc1c(Cl)ccc(-c2nc(C(=O)OCc3ccccc3)c(Cl)c(N)c2F)c1F` [Compound A Benzyl Ester, benzyl ester of 4-amino-3-chloro-5-fluoro-6-(4-chloro-2-fluoro-3-methoxy-phenyl)pyridine-2-carboxylic acid], the “Visual Weed Control (%) Obs” value in assay [5] (4.38 g ae/ha) came out at 70%; in assay [1] (4.38 g ae/ha), 35%; in assay [1] (8.75 g ae/ha), 50%; in assay [2] (19 DAA, 4.38 g ae/ha) it was 65%; in assay [2] (19 DAA, 8.75 g ae/ha), 90%; in assay [3] (19 DAA, 4.38 g ae/ha), 55%. For the same molecule, the “Visual Weed Control (%) Obs” value was 85% in assay [3] (19 DAA, 8.75 g ae/ha); 40% in assay [3] (20 DAA, 4.38 g ae/ha); 70% in assay [3] (20 DAA, 8.75 g ae/ha). For the same molecule, the pest or weed control at 4.38 g/ha turned out to be 0% in assay [4] (456 h) and 10% in assay [4] (504 h). Besides, the values for the pest or weed control at 8.75 g/ha in assay [4] (456 h), in assay [4] (480 h) and in assay [4] (504 h) were 0%, 10% and 10%, respectively. Also, the pest or weed control at 8 g/ha in assay [4] (480 h) was determined as 20%; in assay [4] (528 h) it was 10%. Further, the results for the pest or weed control at 16 g/ha in assay [4] (480 h) and in assay [4] (528 h) were 40% and 10%, respectively. In addition, the pest or weed control at 17.5 g/ha in assay [4] (480 h) and in assay [4] (504 h) was 25% in each case. Also, the pest or weed control at 32 g/ha in assay [4] (528 h) stood at 35%.

With `COc1c(Cl)ccc(-c2nc(C(=O)O)c(Cl)c(N)c2F)c1F` [Compound A Acid, 4-amino-3-chloro-6-(4-chloro-2-fluoro-3-methoxyphenyl)-5-fluoropyridine-2-carboxylic acid], the “Visual Weed Control (%) Obs” value is 60% in assay [5] (8.75 g ae/ha); 30% in assay [1] (4.38 g ae/ha); 60% in assay [2] (21 DAA, 4.38 g ae/ha); 90% in assay [2] (21 DAA, 8.75 g ae/ha); 60% in assay [3] (19 DAA, 4.38 g ae/ha). In addition, in assay [4] (456 h, 19 DAA, 4.38 g ae/ha), the pest or weed control at 4.38 g/ha worked out at 0%. Besides, the pest or weed control at 8.75 g/ha in assay [4] (456 h, 19 DAA, 8.75 g ae/ha) is 10%. For the same molecule, the pest or weed control at 35 g/ha in assay [4] (504 h, 21 DAA, 35 g ae/ha) is 45%. Further, the pest or weed control at 8 g/ha in assay [4] (528 h, 22 DAA, 8 g ae/ha) stood at 25%. Besides, the pest or weed control at 16 g/ha in assay [4] (528 h, 22 DAA, 16 g ae/ha) amounted to 35%. For the same molecule, in assay [4] (528 h, 22 DAA, 32 g ae/ha), the pest or weed control at 32 g/ha amounted to 40%.

As to `CSC(=O)c1c(C(F)F)nc(C(F)(F)F)c(C(=O)SC)c1CC(C)C` [Dithiopyr, S,S′-dimethyl-2-(difluoromethyl)-4-(2-methylpropyl)-6-(trifluoromethyl)-3,5-pyridinedicarbothioate], the “Visual Weed Control (%) Obs” value in assay [5] (35 g ai/ha) worked out at 0%; in assay [5] (70 g ai/ha), 0%; in assay [5] (140 g ai/ha), 0%; in assay [2] (21 DAA, 35 g ai/ha), 0%; in assay [2] (21 DAA, 70 g ai/ha), 0%; in assay [2] (21 DAA, 140 g ai/ha), 0%. The pest or weed control at 35 g/ha in assay [4] (504 h, 21 DAA, 35 g ai/ha) was determined as 10%.
